From patent publication US20230295215A1, “NOVEL MRNA 5'-END CAP ANALOGS MODIFIED WITHIN PHOSPHATE RESIDUES, RNA MOLECULE INCORPORATING THE SAME, USES THEREOF AND METHOD OF SYNTHESIZING RNA MOLECULE OR PEPTIDE” (Uniwersytet Warszawski, priority 2020, published 2023)

Key:
[1] = cited from earlier work; for translation efficiency: relative to the compound without modification
3T3-L1 and JAWS II cells = test: Gaussia luciferase protein expression from capped mRNA transfected into mammalian cells; type: cell-based, murine; conditions: mRNAs modified with the two trinucleotide cap analogs compared with each other
Protocol: Transcripts incorporating at the 5′ end compounds according to the invention or benchmark (reference) compounds were obtained using in vitro transcription method in the presence of RNA polymerase T7 and DNA template containing the […] promoter sequence for this polymerase. In order to analyze the capping efficiency, short RNA transcripts were obtained as described in Example 9. The transcription yielding RNAs of 35 nt in length was carried out in the presence of selected compounds according to the invention or reference compounds representing state of the art and containing the same modifications of phosphate groups as the analyzed compounds according to the invention. The resulting RNAs were treated with DNAzyme 10-23 in order to shorten them and reduce 3′ end heterogeneity and analyzed in 15% polyacrylamide gel, which enabled separation of capped and uncapped RNAs. In order to analyze protein expression yield in mammalian cells, mRNAs carrying compounds according to the invention or reference compounds and encoding Gaussia luciferase as a reporter gene were obtained. […] The obtained mRNAs were introduced into mammalian cell lines (fibroblasts—3T3-L1 and dendritic cells—JAWS II) using transfection with lipofectamine, followed by measuring Gaussia luciferase expression in the extracellular medium at appropriate time intervals by the luminescence method as described in Example 13. […]

COC1C(O)C(COP(=O)(O)OP(=O)(S)OP(=O)(O)OCC2OC(n3cnc4c(=O)[nH]c(N)nc43)C(O)C2O)OC1n1c[n+](C)c2c(=O)[nH]c(N)nc21 (centres unmarked) [m2^7,2′-OGppspG D2]
translation efficiency [1]: increases

CO[C@@H]1[C@H](O)[C@@H](COP(=O)(O)OP(=O)([S-])OP(=O)(O)OC[C@H]2O[C@@H](n3cnc4c(=O)[nH]c(N)nc43)[C@H](O)[C@@H]2O)O[C@H]1n1c[n+](C)c2c(O)nc(N)nc21 (stereo partly drawn) [β-S-ARCA]
translation efficiency of mRNA ([1]; in vitro and in vivo): significant increase in translation efficiency

m^7GppCH2pAmpG
translational properties (3T3-L1 and JAWS II cells): very similar translational properties

m2^7,3′-OGppCH2pG
protein expression ([1]; compared to mRNA obtained with m2^7,3′-OGpppG (no O by CH2 substitution)): significant reduction in protein expression
translation efficiency [1]: decreases
